Among the data in patent publication EP1429719B1, “ANTI-INFLAMMATORY DERMOCOSMETOLOGIC COMPOSITION IN PARTICULAR FOR TREATING ACNE AND SEBORRHEIC DERMATITIS” (Pierre Fabre Dermo-Cosmetique, priority 2001, dated 2003) are PG6KF1α and inhibition values, retold here.

This assay concerns prostaglandine 6KF1α. Briefly: Production of prostaglandin 6KF1α by HaCaT human keratinocytes stimulated with calcium ionophore A23187 (ELISA). The class given is cell-based, humain. The following applies: 5 h culture; for PG6KF1α: n = 3. From the text: Conformément à la présente invention, il a été mis en évidence une synergie d'activité anti-inflammatoire du lactamide et du glycyrrhétinate de zinc et/ou du glycyrrhétinate de stéaryl et/ou de glycyrrhétinate d'ammonium. Cette synergie a été objectivée à la suite d'une évaluation sur la production de prostaglandine 6KF1α par le kératynocyte humain.
Dans cette étude, on s'est intéressé en particulier à une prostaglandine, la PG6KF1α, métabolite stable de la prostarycline, qui est un des métabolites majeurs produits par le kératinocyte stimulé, et représentatif de la modulation de la production des métabolites de l'acide arachidonique issus de la voie de la cyclo-oxygénase.
Sur ce modèle, on a évalué l'activité du glycyrrhétinate de zinc en association avec le lactamide sur la production de PG6KF1α induite chez le kératinocyte par un stimulant de la cascade de l'acide arachidonique, le ionophore calcique A23187.
On a réalisé ensuite la même étude en évaluant l'activité du stéaryl glycyrrhétinate en association avec le lactamide.
La suspension de kératinocytes humains HaCaT dans le RPMI 10% SVF est distribuée dans les plaques 6 puits (1x106 cellules/2ml/puits) et incubée pendant 16 heures à 37°C dans une atmosphère à 5% CO2. Les kératinocytes sont alors rincés avec du PBS pour éliminer les cellules non-adhérentes puis exposés aux produits à tester inclus dans du RPMI sans SVF (qui pourrait interférer dans le dosage).
Le lactamide MEA est directement solubilisé dans le RPMI sans SVF à une concentration de 1 0mg/ml.
Le glycyrrhétinate de zinc est préparé dans l'éthanol absolu à 100 mg/ml puis repris dans le RPMI sans SVF à 10 mg/ml.
Le stéaryl glycyrrhétinate est préparé dans le DMSO à […] puis repris dans le RPMI sans SVF à 10mg/ml.
Le glycyrrhétinate d'ammonium est préparé dans l'éthanol absolu à 100 mg/ml puis repris dans le RPMI sans SVF à 25 mg/ml.
Pour chaque lot, 3 puits sont réalisés. Les cellules sont incubées pendant 1 heure avec les produits à tester puis le ionophore calcique A23187, est ajouté pendant 5 heures à la concentration 5µM.
Les milieux de culture de chacun des puits sont ensuite récupérés, centrifugés à 3000 tr/mn et conservés à -80°C.
La production de prostaglandine 6KF1α pour chacun des essais est mesurée par Kit Elisa EUROMEDEX.
Les lots suivants ont été réalisés : • Lot témoin • Lot témoin stimulé A23187 5µM • Lactamide MEA 500µg/ml + A23187 5µM • Glycyrrhétinate de zinc 10 µg/ml + A23187 5µM • Lactamide MEA 500µg/ml/Glycyrrhétinate de zinc 10µg/ml + A23187 5µM • Stéaryl glycyrrhétinate 50µg/ml + A23187 5µM • Lactamide MEA 500µg/ml/Stéaryl glycyrrhétinate 50µg/ml + A23187 5µM • Glycyrrhétinate d'ammonium 25 µg/ml + A23187 5µM • Lactamide MEA 500 µg/ml/Glycyrrhétinate d'ammonium 25 µg/ml + A23187 5µM.
Les résultats sont exprimés en picogrammes de prostaglandine 6KF1α pour 1x10^6 kératinocytes et par ml de culture.
L'analyse statistique des résultats est réalisée par une analyse de variance et par le test de Dunnett.
(In general: In an ELISA, binding on a coated surface is turned into a signal by an enzyme label.)

With `CC1(C)[C@@H](O)CC[C@]2(C)[C@H]3C(=O)C=C4[C@@H]5C[C@@](C)(C(=O)O)CC[C@]5(C)CC[C@@]4(C)[C@]3(C)CC[C@@H]12` [Glycyrrhétinate d'ammonium, glycyrrhétinate d'ammonium], under “Glycyrrhétinate d'ammonium 25µg/ml + A23187 5µM”, the PG6KF1α is on record as 80,74 ± 3,67 pg/1x10^6 kératinocytes/ml. The inhibition at 25 µg/mL (Homo sapiens, Glycyrrhétinate d'ammonium 25µg/ml + A23187 5µM, n = 3, read-out: % activité / Témoin A23187) was determined as 30%.
Regarding `CC(O)C(=O)NCCO` (stereo not shown) [Lactamide MEA, monoéthanolamide de l'acide lactique], for the setting “Homo sapiens, Lactamide MEA 500µg/ml + A23187 5µM, n = 3, read-out: % activité / Témoin A23187”, the inhibition at 500 µg/mL was -8%. For the same compound, under “Lactamide MEA 500µg/ml + A23187 5µM, 1 h pre-incubation”, the PG6KF1α is 124,87 ± 11,50 pg/1x10^6 kératinocytes/ml.
As to `CCCCCCCCCCCCCCCCCCOC(=O)[C@@]1(C)CC[C@]2(C)CC[C@]3(C)C(=CC(=O)[C@@H]4[C@@]5(C)CC[C@H](O)C(C)(C)[C@@H]5CC[C@]43C)[C@@H]2C1` [Stéaryl glycyrrhétinate, stéaryl glycyrrhétinate], the inhibition at 50 µg/mL (Homo sapiens, Stéaryl glycyrrhétinate 50µg/ml + A23187 5µM, n = 3, read-out: % activité / Témoin A23187) came out at 31%. Further, for the setting “Stéaryl glycyrrhétinate 50µg/ml + A23187 5µM”, the PG6KF1α is listed as 79,87 ± 5,14 pg/1x10^6 kératinocytes/ml.
Take glycyrrhétinate de zinc: the PG6KF1α (Glycyrrhétinate de zinc 10µg/ml + A23187 5µM) is 78,37 ± 2,55 pg/1x10^6 kératinocytes/ml.
